Patent US5130119A, “Method of using fluorosubstituted benzene derivatives in F-NMR imaging” (Schering Aktiengesellschaft, priority 1988, dated 1992)
Values joined by “and” are separate entries in the source; they are usually repeats but may differ in a detail not shown here. Equal values may be shown once.

Columns and labels:
[1] = test system: rat (whole animal; bladder area); experiment: in vivo 19F NMR spectroscopic pH determination; design: species or system female rats of the Wistar-Han-Schering strain (SPF); details: 0.5 mmol/kg i.v.
Method: Performance of in vivo ^19 F NMR spectroscopic pH determinations with 5-[N-(4-fluoro-2-trifluoromethylphenyl)sulfamoyl]-isophthalic acid (Example 13)
An aqueous solution of the fluorocompound is produced with a concentration of 0.4 mol/1. The pH of the aqueous solution is adjusted with NaOH to 7.2.
The NMR spectra are measured with an animal experimental nuclear spin tomograph (General Electric), which operates with a field strength of 2 tesla (corresponds to an RF resonance frequency of 80.5 MHz). The signals can be picked up by the whole-body coil (animal size) or surface coils.
The experiments are performed with female rats of the Wistar-Han-Schering strain (SPF) with a body weight of 200 g. The animal is anesthetized by an intramuscular injection of Rompun/Ketavet (1:1, 1 ml/kg of body weight). Then a butterfly needle is placed in the animal in one of the tail veins. The animal is placed in a whole-body coil and the latter is tuned to the fluororesonance frequency. The spectrum of the entire animal is developed with this coil, i.e., no volume-selective spectroscopy is performed.
The fluorinated compound is applied intravenously within 30 seconds in a dose of 0.5 mmol/kg and an F spectrum is registered within 4 minutes.
After measurement of the total animal, the animal was removed from the coil and positioned on a surface coil so that the bladder area was picked up by the coil. […] The intense signals originate from the fluorocompound in the bladder. The chemical shift in the aromatic range is identical with the deep-field signal of the aromatic range in FIG. 2.

[2] = test system: kidney, bladder and ureter; experiment: 19F imaging; type: in vivo, rat
Excerpt: FIG. 4 relates to Example 50 and is the projection ^19 F image of the kidney, bladder, and ureters of a rat administered 0.75 mmol/kg of 5-[N-4-fluoro-2-trifluoromethylphenyl)sulfamoyl] isophthalic acid and 0.2 mmol/kg GdDTPA.
Production of the solution of the fluorinated substance as well as preparation of the animal take place as in taking the ^19 F NMR spectra.
The test animal is placed in the measuring coil and the fluorinated compound is applied in a dose of 0.75 mmol/kg of body weight by the tail vein in 1 minute. Then an intravenous application takes place, also by needle in the tail vein, of GdDTPA in a dose of 0.2 mmol/kg. Making of the image takes place with a projection spin echo sequence and the parameters: TR=28 msec (repetition rate), TE=4 msec (echo time), NEX=256 (number of averagings); the total measuring time is 15 minutes.

[3] = intravenous acute tolerability (LD50) on the mouse; details: in vivo
Method: Thus, for example, an intravenous acute tolerability (LD50) of 4 mmol/kg of body weight was determined on the mouse for 5-[N-(4-fluoro-2-trifluoromethylphenyl)sulfamoyl)-isophthalic acid (Example 13).

## O=C(O)c1cc(C(=O)O)cc(S(=O)(=O)Nc2ccc(F)cc2C(F)(F)F)c1 [Example 13, 5-[N-(4-fluoro-2-trifluoromethylphenyl)sulfamoyl]-isophthalic acid]
[1]; 5 minutes after application, whole rat, 2 tesla, CF3 reference signal
  pH calculated from the chemical shifts (2 environments): 6.5 and 7.7
[1]; 50 minutes after application
  19F signal from the alkaline range: almost disappeared
  19F signal in the acid range: split into several signals
[1]; bladder area, surface coil, 20 minutes measuring time
  location of lowest pH in the animal: the lowest (most acid) pH is in the bladder
[1]; bladder area, surface coil, 70 minutes after application, 20 minutes measuring time
  excretion: renally excreted
[1]; whole rat
  distribution at the beginning of the experiment: found only in the blood
[1]; whole rat, 50 minutes
  distribution 50 minutes after application: distributed extravascularly
[2]; 0.75 mmol/kg i.v. plus GdDTPA 0.2 mmol/kg
  excretion (imaging): renally excreted
[2]; 0.75 mmol/kg i.v. plus GdDTPA 0.2 mmol/kg i.v., projection spin echo, 15 minutes
  19F image: shows the kidney, bladder and ureter
[2]; 0.75 mmol/kg i.v., reabsorption of water in these areas
  F concentration in kidney, bladder and ureter: high F concentration
[3]
  LD50: 4000 µmol/kg
